Assay results: patent US20250205344A1, “2,4-DIOXOTETRAHYDROPYRIMIDINYL DERATIVES AS DEGRONS IN PROTACS” (GLAXOSMITHKLINE INTELLECTUAL PROPERTY DEVELOPMENT LIMITED, priority 2022, published 2025)
Structures can show the parent of a compound that is named as a salt.

What follows are compounds tested against T1, Androgen Receptor (Homo sapiens, UniProt P10275, T878A) (assay: Androgen Receptor Degradation Assay (Nano-Glo HiBiT)). Conditions: LNCaP, 18 h, HiBiT-tagged AR in human LnCaP cells, read-out: mean asymptote max.
T1 construct: the AR gene was modified, using CRISPR/Cas9 editing, so the expressed AR protein included an 11 amino acid HiBiT tag; endogenous in cells; host or cells: clonal LnCaP-derived line, AR gene edited by CRISPR/Cas9
Assay type: cell-based
Summary of the method: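 LnCaP cells with CRISPR-knocked-in N-terminal HiBiT-tagged AR (10,000/well) treated 18 h at 37 °C with PROTACs over 11 threefold concentrations; lytic HiBiT luminescence normalised to DMSO (0%) and cell-free (100%) controls. Relative DC50 = 4-parameter fit inflection; absolute DC50 = 50% degradation interpolation; Dmax = maximum observed degradation.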

T1 sequence (P10275 whole entry T878A): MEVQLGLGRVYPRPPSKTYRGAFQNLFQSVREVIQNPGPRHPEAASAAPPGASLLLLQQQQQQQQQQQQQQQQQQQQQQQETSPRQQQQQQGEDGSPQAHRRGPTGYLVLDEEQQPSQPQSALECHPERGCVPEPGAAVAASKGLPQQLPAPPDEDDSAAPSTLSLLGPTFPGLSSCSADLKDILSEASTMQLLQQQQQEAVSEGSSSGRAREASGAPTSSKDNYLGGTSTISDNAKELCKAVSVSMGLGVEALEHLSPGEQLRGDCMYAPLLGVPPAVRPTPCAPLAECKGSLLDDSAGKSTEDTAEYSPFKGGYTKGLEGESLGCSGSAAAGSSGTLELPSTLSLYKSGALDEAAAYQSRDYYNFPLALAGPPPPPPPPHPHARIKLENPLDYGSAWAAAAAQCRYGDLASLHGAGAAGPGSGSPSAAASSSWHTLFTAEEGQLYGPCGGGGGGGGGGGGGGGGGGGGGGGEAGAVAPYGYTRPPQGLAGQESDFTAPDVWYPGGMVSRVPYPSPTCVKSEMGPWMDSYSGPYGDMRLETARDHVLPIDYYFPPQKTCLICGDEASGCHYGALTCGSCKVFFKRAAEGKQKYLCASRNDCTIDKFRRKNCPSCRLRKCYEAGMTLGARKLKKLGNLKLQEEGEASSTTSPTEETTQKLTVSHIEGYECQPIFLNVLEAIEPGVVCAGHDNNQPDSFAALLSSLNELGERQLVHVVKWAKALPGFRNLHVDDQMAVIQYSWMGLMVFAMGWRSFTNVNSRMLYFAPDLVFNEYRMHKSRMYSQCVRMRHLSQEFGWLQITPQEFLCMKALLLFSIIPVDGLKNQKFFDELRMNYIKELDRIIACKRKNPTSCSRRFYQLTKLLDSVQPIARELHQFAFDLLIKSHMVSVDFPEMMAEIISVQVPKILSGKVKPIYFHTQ
T1 sequence (Q96SW2 whole entry partner): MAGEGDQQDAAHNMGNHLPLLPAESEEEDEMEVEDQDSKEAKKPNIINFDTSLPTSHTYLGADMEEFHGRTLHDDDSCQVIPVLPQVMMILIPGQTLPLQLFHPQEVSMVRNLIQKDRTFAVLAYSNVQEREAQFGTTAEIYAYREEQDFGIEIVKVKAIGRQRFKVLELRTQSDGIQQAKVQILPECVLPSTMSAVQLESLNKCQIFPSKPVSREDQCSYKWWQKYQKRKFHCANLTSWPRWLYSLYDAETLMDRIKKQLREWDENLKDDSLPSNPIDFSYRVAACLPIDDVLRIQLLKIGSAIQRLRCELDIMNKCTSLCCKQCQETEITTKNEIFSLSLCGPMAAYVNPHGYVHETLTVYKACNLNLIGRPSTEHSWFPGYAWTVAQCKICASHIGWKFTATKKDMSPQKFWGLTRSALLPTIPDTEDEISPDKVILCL
T1 sequence (Q16531 whole entry partner): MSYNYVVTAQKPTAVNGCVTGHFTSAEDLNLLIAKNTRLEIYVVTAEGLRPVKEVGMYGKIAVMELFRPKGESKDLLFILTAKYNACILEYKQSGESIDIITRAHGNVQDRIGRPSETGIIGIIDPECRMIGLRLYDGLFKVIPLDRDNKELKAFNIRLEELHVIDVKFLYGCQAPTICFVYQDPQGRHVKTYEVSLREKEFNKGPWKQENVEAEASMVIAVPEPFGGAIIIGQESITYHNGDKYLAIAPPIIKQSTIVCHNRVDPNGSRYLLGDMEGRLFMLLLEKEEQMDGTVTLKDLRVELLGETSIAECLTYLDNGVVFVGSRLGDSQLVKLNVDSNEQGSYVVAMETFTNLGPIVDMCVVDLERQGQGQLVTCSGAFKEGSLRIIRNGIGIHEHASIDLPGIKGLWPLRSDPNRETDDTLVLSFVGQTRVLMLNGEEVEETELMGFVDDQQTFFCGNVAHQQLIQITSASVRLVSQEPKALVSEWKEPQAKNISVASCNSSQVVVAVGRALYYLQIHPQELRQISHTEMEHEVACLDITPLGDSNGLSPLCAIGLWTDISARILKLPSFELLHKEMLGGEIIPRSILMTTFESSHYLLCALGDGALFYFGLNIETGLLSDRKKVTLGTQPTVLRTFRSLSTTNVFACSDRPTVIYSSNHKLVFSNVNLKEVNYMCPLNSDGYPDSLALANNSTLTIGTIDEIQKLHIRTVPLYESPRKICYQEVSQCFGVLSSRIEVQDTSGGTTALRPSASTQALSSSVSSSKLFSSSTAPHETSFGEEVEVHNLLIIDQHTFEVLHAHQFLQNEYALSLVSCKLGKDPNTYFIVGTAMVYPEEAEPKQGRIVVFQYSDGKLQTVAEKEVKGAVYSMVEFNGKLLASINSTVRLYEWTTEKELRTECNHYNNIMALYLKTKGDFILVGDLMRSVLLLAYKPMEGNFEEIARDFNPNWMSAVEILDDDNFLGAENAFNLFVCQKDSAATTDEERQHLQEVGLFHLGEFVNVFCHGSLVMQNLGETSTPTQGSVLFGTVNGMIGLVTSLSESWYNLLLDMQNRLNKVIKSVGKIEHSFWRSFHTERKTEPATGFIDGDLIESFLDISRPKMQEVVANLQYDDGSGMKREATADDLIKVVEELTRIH

With N#Cc1ccc(O[C@H]2CC[C@H](NC(=O)c3cnc(N4CCC(CN5CCC(n6ccc7c(N8CCC(=O)NC8=O)nccc76)CC5)CC4)cn3)CC2)cc1Cl [EAR182, N-((1r,4r)-4-(3-Chloro-4-cyanophenoxy)cyclohexyl)-5-(4-((4-(4-(2,4-dioxotetrahydropyrimidin-1(2H)-yl)-1H-pyrrolo[3,2-c]pyridin-1-yl)piperidin-1-yl)methyl)piperidin-1-yl)pyrazine-2-carboxamide] as the compound, how does the Dmax read?
Its Dmax is no less than 50%.

For N#Cc1ccc(O[C@H]2CC[C@H](NC(=O)c3ccc(N4CCC5(CC(CN6CCC(n7ncc8c(N9CCC(=O)NC9=O)cccc87)CC6)C5)C4)nn3)CC2)cc1Cl (stereo partly shown) [EAR233, N-((1r,4r)-4-(3-chloro-4-cyanophenoxy)cyclohexyl)-6-(2-((4-(4-(2,4-dioxotetrahydropyrimidin-1(2H)-yl)-1H-indazol-1-yl)piperidin-1-yl)methyl)-6-azaspiro[3.4]octan-6-yl)pyridazine-3-carboxamide], which Dmax is on record?
Its Dmax is no less than 50%.

Which Dmax does the source give for CC(C)n1ccc2c(N3CCC(=O)NC3=O)cc(C(=O)N3CCC4(CCCN(Cc5ccc(C(=O)N[C@H]6CC[C@H](Oc7ccc(C#N)c(Cl)c7)CC6)cc5)C4)CC3)cc21 [EAR81, N-((1r,4r)-4-(3-Chloro-4-cyanophenoxy)cyclohexyl)-4-((9-(4-(2,4-dioxotetrahydropyrimidin-1(2H)-yl)-1-isopropyl-1H-indole-6-carbonyl)-2,9-diazaspiro[5.5]undecan-2-yl)methyl)benzamide] here?
Its Dmax is no less than 50%.

CC(C)n1ccc2c(N3CCC(=O)NC3=O)cc(C(=O)N(C)CC3CCN(CCCCOc4ccc(C(=O)N[C@H]5CC[C@H](Oc6ccc(C#N)c(Cl)c6)CC5)nc4)CC3)cc21 [EAR65, N-((1-(4-((6-(((1r,4r)-4-(3-Chloro-4-cyanophenoxy)cyclohexyl)carbamoyl)pyridin-3-yl)oxy)butyl)piperidin-4-yl)methyl)-4-(2,4-dioxotetrahydropyrimidin-1(2H)-yl)-1-isopropyl-N-methyl-1H-indole-6-carboxamide] was tested. Which Dmax did it give?
Its Dmax is no less than 50%.

For N#Cc1ccc(O[C@H]2CC[C@H](NC(=O)c3ccc(N4CCC5(CC4)CC(N4CCC(n6ccc7c(N8CCC(=O)NC8=O)cccc76)CC4)C5)nn3)CC2)cc1Cl [EAR193, N-((1r,4r)-4-(3-Chloro-4-cyanophenoxy)cyclohexyl)-6-(2-(4-(4-(2,4-dioxotetrahydropyrimidin-1(2H)-yl)-1H-indol-1-yl)piperidin-1-yl)-7-azaspiro[3.5]nonan-7-yl)pyridazine-3-carboxamide], which Dmax is on record?
The Dmax was no less than 50%.

CC(C)n1ccc2c(N3CCC(=O)NC3=O)cc(C(=O)N3CCN(CC4CCN(c5ncc(NC(=O)N6C[C@H](C)N(c7ccc(C#N)c(Cl)c7)C[C@H]6C)cn5)CC4)CC3)cc21 [EAR107, (2R,5S)-4-(3-Chloro-4-cyanophenyl)-N-(2-(4-((4-(4-(2,4-dioxotetrahydropyrimidin-1(2H)-yl)-1-isopropyl-1H-indole-6-carbonyl)piperazin-1-yl)methyl)piperidin-1-yl)pyrimidin-5-yl)-2,5-dimethylpiperazine-1-carboxamide] was tested. Which Dmax did it give?
Its Dmax is no less than 50%.

With CC1(C)[C@H](NC(=O)c2ccc(N3CCC(CN4CCC(n5ncc6c(N7CCC(=O)NC7=O)nccc65)CC4)CC3)nc2)C(C)(C)[C@H]1Oc1cnc(C#N)c(Cl)c1 [EAR257, N-((1r,3r)-3-((5-Chloro-6-cyanopyridin-3-yl)oxy)-2,2,4,4-tetramethylcyclobutyl)-6-(4-((4-(4-(2,4-dioxotetrahydropyrimidin-1(2H)-yl)-1H-pyrazolo[4,3-c]pyridin-1-yl)piperidin-1-yl)methyl)piperidin-1-yl)nicotinamide] as the compound, how does the Dmax read?
The Dmax was no less than 50%.

For CC1(C)[C@H](NC(=O)c2ccc(N3CCC(CN4CCC(n5ccc6c(N7CCC(=O)NC7=O)cncc65)CC4)CC3)nn2)C(C)(C)[C@H]1Oc1ccc(C#N)c(Cl)c1 [EAR56, N-((1r,3r)-3-(3-Chloro-4-cyanophenoxy)-2,2,4,4-tetramethylcyclobutyl)-6-(4-((4-(4-(2,4-dioxotetrahydropyrimidin-1(2H)-yl)-1H-pyrrolo[2,3-c]pyridin-1-yl)piperidin-1-yl)methyl)piperidin-1-yl)pyridazine-3-carboxamide], which Dmax is on record?
The Dmax was no less than 50%.

How did the Dmax turn out when CC(C)n1ccc2c(N3CCC(=O)NC3=O)cc(C(=O)N3CCN(CCCOc4ccc(N5C(=S)N(c6ccc(C#N)c(C(F)(F)F)c6)C(=O)C5(C)C)cc4)CC3)cc21 [EAR94, 4-(3-(4-(3-(4-(4-(2,4-Dioxotetrahydropyrimidin-1(2H)-yl)-1-isopropyl-1H-indole-6-carbonyl)piperazin-1-yl)propoxy)phenyl)-4,4-dimethyl-5-oxo-2-thioxoimidazolidin-1-yl)-2-(trifluoromethyl)benzonitrile formate] was run?
The Dmax was no less than 50%.

How did the Dmax turn out when N#Cc1ccc(O[C@H]2CC[C@H](NC(=O)c3ccc(N4CCC(CN5CCC[C@@H](n6ccc7c(N8CCC(=O)NC8=O)cccc76)C5)CC4)nn3)CC2)cc1Cl [EAR184, N-((1r,4r)-4-(3-Chloro-4-cyanophenoxy)cyclohexyl)-6-(4-(((S)-3-(4-(2,4-dioxotetrahydropyrimidin-1(2H)-yl)-1H-indol-1-yl)piperidin-1-yl)methyl)piperidin-1-yl)pyridazine-3-carboxamide hydrochloride] was run?
The Dmax was no less than 50%.

N#Cc1ccc(O[C@H]2CC[C@H](NC(=O)c3ccc(N4CCC(CN5CC[C@H](n6ccc7c(N8CCC(=O)NC8=O)cccc76)[C@@H](F)C5)CC4)nn3)CC2)cc1Cl [EAR145, N-((1r,4r)-4-(3-Chloro-4-cyanophenoxy)cyclohexyl)-6-(4-(((3S,4S)-4-(4-(2,4-dioxotetrahydropyrimidin-1(2H)-yl)-1H-indol-1-yl)-3-fluoropiperidin-1-yl)methyl)piperidin-1-yl)pyridazine-3-carboxamide, hydrochloride] was tested. Which Dmax did it give?
The Dmax was no less than 50%.

How did the Dmax turn out when N#Cc1ccc(O[C@H]2CC[C@H](NC(=O)c3ccc(N4CCC(CN5CCC(n6ccc7c(N8CCC(=O)NC8=O)cccc76)CC5)CC4)cn3)CC2)cc1Cl [EAR186, N-((1r,4r)-4-(3-Chloro-4-cyanophenoxy)cyclohexyl)-5-(4-((4-(4-(2,4-dioxotetrahydropyrimidin-1(2H)-yl)-1H-indol-1-yl)piperidin-1-yl)methyl)piperidin-1-yl)picolinamide] was run?
Its Dmax is no less than 50%.

CC(C)n1ccc2c(N3CCC(=O)NC3=O)cc(C(=O)N(C)CC3CCN(CC4CCN(c5ccc(N6C(=S)N(c7ccc(C#N)c(C(F)(F)F)c7)C(=O)C6(C)C)cc5)CC4)CC3)cc21 [EAR89, N-((1-((1-(4-(3-(4-Cyano-3-(trifluoromethyl)phenyl)-5,5-dimethyl-4-oxo-2-thioxoimidazolidin-1-yl)phenyl)piperidin-4-yl)methyl)piperidin-4-yl)methyl)-4-(2,4-dioxotetrahydropyrimidin-1(2H)-yl)-1-isopropyl-N-methyl-1H-indole-6-carboxamide] was tested. Which Dmax did it give?
Its Dmax is no less than 50%.

How did the Dmax turn out when N#Cc1ccc(O[C@H]2CC[C@H](NC(=O)c3ccc(N4CC5(CCC(CN6CCC(n7ncc8c(N9CCC(=O)NC9=O)cccc87)CC6)CO5)C4)nn3)CC2)cc1Cl (stereo partly shown) [EAR218, N-((1r,4r)-4-(3-Chloro-4-cyanophenoxy)cyclohexyl)-6-(7-((4-(4-(2,4-dioxotetrahydropyrimidin-1(2H)-yl)-1H-indazol-1-yl)piperidin-1-yl)methyl)-5-oxa-2-azaspiro[3.5]nonan-2-yl)pyridazine-3-carboxamide] was run?
Its Dmax is no less than 50%.

Which Dmax does the source give for N#Cc1ccc(O[C@H]2CC[C@H](NC(=O)c3ccc(N4CCC(CN5CCC(n6ccc7c(N8CCC(=O)NC8=O)cncc76)CC5)CC4)nc3)CC2)cc1Cl [EAR50, N-((1r,4r)-4-(3-Chloro-4-cyanophenoxy)cyclohexyl)-6-(4-((4-(4-(2,4-dioxotetrahydropyrimidin-1(2H)-yl)-1H-pyrrolo[2,3-c]pyridin-1-yl)piperidin-1-yl)methyl)piperidin-1-yl)nicotinamide hydrochloride] here?
The Dmax was no less than 50%.

For N#Cc1ccc(O[C@H]2CC[C@H](NC(=O)c3ccc(N4CCC(CN5CCC(n6ccc7c(N8CCC(=O)NC8=O)cncc76)CC5)CC4)nn3)CC2)cc1C(F)(F)F [EAR45, N-((1r,4r)-4-(4-Cyano-3-(trifluoromethyl)phenoxy)cyclohexyl)-6-(4-((4-(4-(2,4-dioxotetrahydropyrimidin-1(2H)-yl)-1H-pyrrolo[2,3-c]pyridin-1-yl)piperidin-1-yl)methyl)piperidin-1-yl)pyridazine-3-carboxamide], which Dmax is on record?
The Dmax was no less than 50%.

N#Cc1ccc(O[C@H]2CC[C@H](NC(=O)c3cccc(OC4CCN(C(=O)CN5CCC(n6ccc7c(N8CCC(=O)NC8=O)cccc76)CC5)CC4)c3)CC2)cc1Cl [AR2, N-((1r,4r)-4-(3-Chloro-4-cyanophenoxy)cyclohexyl)-3-((1-(2-(4-(4-(2,4-dioxotetrahydropyrimidin-1(2H)-yl)-1H-indol-1-yl)piperidin-1-yl)acetyl)piperidin-4-yl)oxy)benzamide] was tested. Which Dmax did it give?
The Dmax was no less than 50%.

How did the Dmax turn out when N#Cc1ccc(O[C@H]2CC[C@H](NC(=O)c3ccc(N4CCC(CN5CC[C@H](n6ccc7c(N8CCC(=O)NC8=O)cccc76)[C@H](F)C5)CC4)nn3)CC2)cc1Cl [EAR156, N-((1r,4r)-4-(3-Chloro-4-cyanophenoxy)cyclohexyl)-6-(4-(((3R,4S)-4-(4-(2,4-dioxotetrahydropyrimidin-1(2H)-yl)-1H-indol-1-yl)-3-fluoropiperidin-1-yl)methyl)piperidin-1-yl)pyridazine-3-carboxamide, hydrochloride] was run?
Its Dmax is no less than 50%.

With N#Cc1ccc(O[C@H]2CC[C@H](NC(=O)c3ccc(N4CCC(CN5CCC(CCn6ccc7c(N8CCC(=O)NC8=O)cccc76)CC5)CC4)nn3)CC2)cc1Cl [EAR179, N-((1r,4r)-4-(3-chloro-4-cyanophenoxy)cyclohexyl)-6-(4-((4-(2-(4-(2,4-dioxotetrahydropyrimidin-1(2H)-yl)-1H-indol-1-yl)ethyl)piperidin-1-yl)methyl)piperidin-1-yl)pyridazine-3-carboxamide hydrochloride] as the compound, how does the Dmax read?
Its Dmax is no less than 50%.
